According to patent US20250144067A1, “PERSONALIZED STARVATION THERAPY FOR CANCER” (Faeth Therapeutics, Inc., priority 2021, published 2025):
Structures can show the parent of a compound that is named as a salt.

Columns and labels:
[1] = system: NCI-H292 lung cancer cells; experiment: FDA drug screening, complete media vs cholesterol-free media without statin (TABLE 1); format: cell-based, human
[2] = system: NCI-H292 lung cancer cells; experiment: FDA drug screening, complete media vs cholesterol-free media with simvastatin (TABLE 2); format: cell-based, human; conditions: for Cholesterol-free media + simvastatin (0.04 μM) / Complete Media: NCI-H292 cells; for Difference: >0 enhanced anti-cancer activity, about 0 neutral, <0 antagonist
[3] = Complete minus Cholesterol-free; greater than 0 enhanced anti-cancer activity, about 0 neutral, below 0 antagonist
[4] = NCI-H292 cells, FDA drug library screen, cholesterol-free media without statin
[5] = NCI-H292 cells, FDA drug library screen, complete media
[6] = FDA drug library screen, cholesterol-free media with simvastatin 0.04 μM
[7] = complete media minus cholesterol-free media + simvastatin (0.04 μM)
[8] = Complete minus Cholesterol-free; >0 enhanced anti-cancer activity, about 0 neutral, <0 antagonist
[9] = NCI-H292 cells, cholesterol-free media without statin
[10] = complete media vs cholesterol-free media + simvastatin (0.04 μM)
[11] = complete vs cholesterol-free media; greater than 0 enhanced anti-cancer activity, about 0 neutral, below 0 antagonists
[12] = cholesterol-free media with simvastatin 0.04 μM, FDA drug library screen (TABLE 2)
[13] = complete media, FDA drug library screen (TABLE 2)
[14] = NCI-H292 cells, cholesterol-free media without statin, FDA drug library screen
[15] = NCI-H292 cells, complete media, FDA drug library screen
[16] = FDA drug library screen, complete media
[17] = complete media minus cholesterol-free media + simvastatin
[18] = cholesterol-free media with simvastatin 0.04 μM, cell growth value in FDA drug screen
[19] = complete media, cell growth value in FDA drug screen
[20] = complete vs cholesterol-free media; >0 enhanced anti-cancer activity, about 0 neutral, <0 antagonist

`CCC(=O)NS(=O)(=O)c1ccc(-c2c(-c3ccccc3)noc2C)cc1` [Parecoxib (Sodium)] showed a Difference [1, 3] of −0.08, a Cholesterol-free [1, 4] of 0.9327 and a Complete [1, 5] of 0.8551. The “Cholesterol-free media + simvastatin (0.04 μM)” value [2, 6] was 2.419 and the Difference [2, 7] was −1.17.

With `CCC(=O)NS(=O)(=O)c1ccc(-c2c(-c3ccccc3)noc2C)cc1` [Parecoxib] the Difference [1, 8] was −0.20, the Cholesterol-free [1, 9] was 0.9171 and the Complete ([1]; NCI-H292 cells, complete media) was 0.7131. The “Cholesterol-free media + simvastatin (0.04 μM)” value ([2]; drug in cholesterol-free media with simvastatin 0.04 μM) was 0.9747, the “Complete Media” value ([2]; drug in complete media) was 0.7244 and the Difference [2, 10] was −0.25.

Work on `C#CCN(C)Cc1ccccc1` [Pargyline (hydrochloride)] yielded a Cholesterol-free [1, 9] of 1.204, a Complete ([1]; NCI-H292 cells, complete media) of 0.7875 and a Difference [1, 11] of −0.42. The “Cholesterol-free media + simvastatin (0.04 μM)” value [2, 12] was 0.8767, the “Complete Media” value [2, 13] was 0.8243 and the Difference [2, 7] was −0.05.

Compound `Cc1cnc(C(=O)N[C@H]2CCCCC/C=C\[C@@H]3C[C@@]3(C(=O)NS(=O)(=O)C3CC3)NC(=O)[C@@H]3C[C@@H](Oc4nc5ccccc5c5ccccc45)CN3C2=O)cn1` [Paritaprevir] has a Difference [1, 8] of −0.03, a Cholesterol-free [1, 14] of 0.9471 and a Complete [1, 15] of 0.9198. The “Cholesterol-free media + simvastatin (0.04 μM)” value [2, 12] was 1.147, the “Complete Media” value [2, 13] was 1.102 and the Difference [2, 7] was −0.05.

`Fc1ccc([C@@H]2CCNC[C@H]2COc2ccc3c(c2)OCO3)cc1` [Paroxetine (hydrochloride)] gave a Difference [1, 8] of −0.22, a Cholesterol-free [1, 9] of 1.09 and a Complete ([1]; NCI-H292 cells, complete media) of 0.8739. For the same compound, the “Cholesterol-free media + simvastatin (0.04 μM)” value [2, 12] was 0.916, the “Complete Media” value [2, 13] was 0.9086 and the Difference [2, 7] was −0.01.

`Cc1ccc(Nc2nccc(N(C)c3ccc4c(C)n(C)nc4c3)n2)cc1S(N)(=O)=O` [Pazopanib (Hydrochloride)] was tested, and the Difference [1, 3] was −0.12, the Cholesterol-free [1, 4] was 1.089 and the Complete [1, 5] was 0.9723. For the same compound, the “Cholesterol-free media + simvastatin (0.04 μM)” value [2, 6] was 0.5325, the “Complete Media” value [2, 16] was 1.206 and the Difference [2, 17] was 0.67.

`Cc1ccc(Nc2nccc(N(C)c3ccc4c(C)n(C)nc4c3)n2)cc1S(N)(=O)=O` [Pazopanib] showed a Difference [1, 8] of 0.02, a Cholesterol-free [1, 14] of 1.084 and a Complete [1, 15] of 1.105. The “Cholesterol-free media + simvastatin (0.04 μM)” value [2, 6] was 1.156, the “Complete Media” value [2, 16] was 1.457 and the Difference [2, 17] was 0.30.

For `NC(=O)c1cnc2[nH]ccc2c1N[C@@H]1[C@@H]2CC3C[C@H]1C[C@@](O)(C3)C2` [Peficitinib], the Difference [1, 8] was −0.03, the Cholesterol-free [1, 14] was 1.336 and the Complete [1, 15] was 1.303. For the same compound, the “Cholesterol-free media + simvastatin (0.04 μM)” value [2, 18] was 0.6674, the “Complete Media” value [2, 19] was 0.776 and the Difference [2, 17] was 0.11.

`Nc1nc2[nH]cc(CCc3ccc(C(=O)N[C@@H](CCC(=O)O)C(=O)O)cc3)c2c(=O)[nH]1` [Pemetrexed (disodium hemipenta hydrate)] showed a Cholesterol-free [1, 14] of 0.09445, a Complete [1, 15] of 0.1693 and a Difference [1, 20] of 0.07. The “Cholesterol-free media + simvastatin (0.04 μM)” value [2, 12] was 0.2685, the “Complete Media” value [2, 13] was 0.2746 and the Difference [2, 7] was 0.01.

With `Nc1nc2[nH]cc(CCc3ccc(C(=O)N[C@@H](CCC(=O)O)C(=O)O)cc3)c2c(=O)[nH]1` [Pemetrexed (disodium)] the Difference [1, 8] was −0.19, the Cholesterol-free [1, 9] was 0.3169 and the Complete ([1]; NCI-H292 cells, complete media) was 0.1251. The “Cholesterol-free media + simvastatin (0.04 μM)” value [2, 18] was 0.1199, the “Complete Media” value [2, 19] was 0.1499 and the Difference [2, 17] was 0.03.

In the case of `Nc1nc2[nH]cc(CCc3ccc(C(=O)N[C@@H](CCC(=O)O)C(=O)O)cc3)c2c(=O)[nH]1` [Pemetrexed], the Difference [1, 8] is reported as −0.01, the Cholesterol-free [1, 14] is reported as 0.1659 and the Complete [1, 15] is reported as 0.1596. For the same compound, the “Cholesterol-free media + simvastatin (0.04 μM)” value [2, 12] was 0.2196, the “Complete Media” value [2, 13] was 0.2004 and the Difference [2, 7] was −0.02.

Compound `Cc1cccn2c(=O)c(-c3nnn[nH]3)cnc12` [Pemirolast (potassium)] has a Cholesterol-free [1, 14] of 0.8951, a Complete [1, 15] of 1.011 and a Difference [1, 20] of 0.12. For the same compound, the “Cholesterol-free media + simvastatin (0.04 μM)” value [2, 6] was 1.053, the “Complete Media” value [2, 16] was 0.9441 and the Difference [2, 10] was −0.11.

In the case of `Nc1nc2c(ncn2CCC(CO)CO)c(=O)[nH]1` [Penciclovir], the Cholesterol-free [1, 9] is reported as 0.9605, the Complete ([1]; NCI-H292 cells, complete media) is reported as 0.6394 and the Difference [1, 11] is reported as −0.32. For the same compound, the “Cholesterol-free media + simvastatin (0.04 μM)” value [2, 12] was 1.351, the “Complete Media” value [2, 13] was 1.353 and the Difference [2, 7] was 0.00.
